Experimental findings from patent US20250386825A1, “Formulation for Applying to Vegetation” (Okipa Ltd, priority 2022, published 2025) are described below.

Like-named read-outs stand apart in the source and are kept apart here.

For the test, the system named is potato leaves. To be noted: for damage on Aug. 8, 2022 (rating score) / damage on Aug. 16, 2022 (rating score) / damage on Aug. 22, 2022 (rating score): treatment on Aug. 5, 2022, Braunschweig, score 0-10, * p < 0.05 vs untreated. How it is done:
In addition to the direct control of weeds in arable farming and on non-crop land, the use of sodium saccharin for desiccation of potatoes was examined. Thus, the following variants were tested in a field test (soil type: sandy loam): (a) untreated, (b) 160 g/l and (c) 320 g/l sodium saccharin. In this example, the addition of an additive was deliberately avoided in order to assess the specific effect of sodium saccharin. The experimental design was a fully randomized block design with 3 replicates and a plot size of 2.25 m^2.
In each case, a row of potatoes 3 m in length was applied using a 5 l hand-held sprayer (®Gloria) with a conventional annular nozzle at a pressure of 3-4 bar. As a result, the degree of damage was recorded in the form of the following rating score.
Score (damage) of the potato leaves after treatment with Sodium saccharin (treatment on Aug. 5, 2022, Braunschweig, conventional cultivation)

As for `O=C1NS(=O)(=O)c2ccccc21.[Na]` [Sodium saccharin, sodium saccharin], under “160 g/l, no additive”, the “damage on Aug. 8, 2022 (rating score)” value is on record as 1.3*; the “damage on Aug. 16, 2022 (rating score)” value is on record as 5.3*; the “damage on Aug. 22, 2022 (rating score)” value is on record as 8.3*. Also, under “320 g/l, no additive”, the “damage on Aug. 8, 2022 (rating score)” value was 3.3*; the “damage on Aug. 16, 2022 (rating score)” value was 7.7*; the “damage on Aug. 22, 2022 (rating score)” value is recorded as 9.3*. In addition, where the note is “field test, 160 g/l and 320 g/l, no additive”, the “desiccation of potato leaves (trend in words)” value was “sufficiently desiccated”. Where the note is “low concentration (160 g/l), after 17 days”, the “desiccation of potato leaves (in words)” value is recorded as “sufficient desiccation”.
